Patent US6495572B1, “Synergistic mixtures of an amino acid” (Agrogene Ltd., priority 1997, dated 2002)

What was measured:
Type in all cases: in vivo, Erysiphe graminis
powdery mildew in wheat = experiment: Control of powdery mildew on potted wheat plants in growth chamber; parameters: ED90: unit not given beside the values; conditions: for Observed Control (%): wheat
Protocol: (§1) β Amionbutyric acid and component (b) fungicides were tested against fungi on potted plants, as follows:
(§2) 12-15 seeds were sown in a pot of 0.5 liter in a mixture of ground, sand, and Perlite in a ratio of 1;1;1. After two weeks in a growth chamber the plants were used for experimentation only when the first true leave appeared. Spraying was done until runoff; waiting in the growth chamber for 24 hours. Inoculations of the fungus was done via dusting the plants with plants already infected. The then dusted plants were incubated 7 to 10 days at 20° in a growth chamber with an exposure of 12 hours to light at an intensity of 7000-800 lucs. The results of the fungul growth was done via visual estimation (0 to 4) of the infected leaves. The existence of synergism between the active components was calculated according to the Abbott Equation. [formula]
(§3) a=% control b the β-arninobutyric acid.
(§4) b=% control by the second component.
(§5) and where the synergism factor. SF is calculated thusly [formula]

[1] = test system: powdery mildew in cucumber; experiment: Control of powdery mildew on potted cucumber plants in growth chamber; conditions: for Observed Control (%): cucumber
Protocol: as §1, §2, §3, §4, §5

powdery mildew in barley = experiment: Control of powdery mildew on potted barley plants in growth chamber
Protocol: as §1, §2, §3, §4, §5

Fc1ccc([C@]2(Cn3cncn3)O[C@H]2c2ccccc2Cl)cc1 (racemic) [Epoxiconazole, epoxiconazole]
ED90 (powdery mildew in wheat; wheat (Table 6)): 0.5
Observed Control (%) (powdery mildew in wheat; Epoxiconazole 0.15 ppm alone): 25%
Observed Control (%) (powdery mildew in wheat; Epoxiconazole 0.6 ppm alone): 98%
Observed Control (%) (powdery mildew in wheat; Epoxiconazole 2.5 ppm alone): 100%
Observed Control (%) (powdery mildew in wheat; Epoxiconazole 10 ppm alone): 100%
ED90 ([1]; cucumber (Table 9)): 5.5
Observed Control (%) ([1]; Epoxiconazole 2.5 ppm alone): 60%
Observed Control (%) ([1]; Epoxiconazole 5 ppm alone): 96%
Observed Control (%) ([1]; Epoxiconazole 10 ppm alone): 96%
Observed Control (%) ([1]; Epoxiconazole 20 ppm alone): 100%

CCCN(CCOc1c(Cl)cc(Cl)cc1Cl)C(=O)n1ccnc1 [Prochloraz, prochloraz]
Observed Control (%) (powdery mildew in wheat; Prochloraz 1.25 ppm alone): 33%
Observed Control (%) (powdery mildew in wheat; Prochloraz 5 ppm alone): 42%
Observed Control (%) (powdery mildew in wheat; Prochloraz 10 ppm alone): 52%
Observed Control (%) (powdery mildew in barley; Prochloraz 1.25 ppm alone): 43%
Observed Control (%) (powdery mildew in barley; Prochloraz 5 ppm alone): 67%
Observed Control (%) (powdery mildew in barley; Prochloraz 10 ppm alone): 74%

CCCC1COC(Cn2cncn2)(c2ccc(Cl)cc2Cl)O1 (stereo not shown) [Propiconazole, propiconazole]
Observed Control (%) (powdery mildew in wheat; Propiconazole 0.5 ppm alone): 25%
Observed Control (%) (powdery mildew in wheat; Propiconazole 1 ppm alone): 50%
Observed Control (%) (powdery mildew in wheat; Propiconazole 2 ppm alone): 83%
Observed Control (%) (powdery mildew in barley; Propiconazole 0.5 ppm alone): 75%
Observed Control (%) (powdery mildew in barley; Propiconazole 1 ppm alone): 88%
Observed Control (%) (powdery mildew in barley; Propiconazole 2 ppm alone): 94%

CC(C)(C)C(O)(CCc1ccc(Cl)cc1)Cn1cncn1 (stereo not shown) [Tebuconazole, tebuconazole]
ED90 (powdery mildew in wheat; wheat (Table 5)): 1.0
Observed Control (%) (powdery mildew in wheat; Tebuconazole 0.15 ppm alone): 25%
Observed Control (%) (powdery mildew in wheat; Tebuconazole 0.6 ppm alone): 63%
Observed Control (%) (powdery mildew in wheat; Tebuconazole 2.5 ppm alone): 100%
Observed Control (%) (powdery mildew in wheat; Tebuconazole 10 ppm alone): 100%
ED90 ([1]; cucumber (Table 8)): 14
Observed Control (%) ([1]; Tebuconazole 2.5 ppm alone): 0%
Observed Control (%) ([1]; Tebuconazole 5 ppm alone): 80%
Observed Control (%) ([1]; Tebuconazole 10 ppm alone): 80%
Observed Control (%) ([1]; Tebuconazole 20 ppm alone): 92%

CC(C)(C)C(O)C(Oc1ccc(Cl)cc1)n1cncn1 (stereo not shown) [Triadimenol, triadimenol]
ED90 (powdery mildew in wheat; wheat (Table 7)): 1.0
Observed Control (%) (powdery mildew in wheat; Triadimenol 0.15 ppm alone): 25%
Observed Control (%) (powdery mildew in wheat; Triadimenol 0.6 ppm alone): 98%
Observed Control (%) (powdery mildew in wheat; Triadimenol 2.5 ppm alone): 100%
Observed Control (%) (powdery mildew in wheat; Triadimenol 10 ppm alone): 100%
ED90 ([1]; cucumber (Table 10)): 9.4
Observed Control (%) ([1]; Triadimenol 2.5 ppm alone): 60%
Observed Control (%) ([1]; Triadimenol 5 ppm alone): 88%
Observed Control (%) ([1]; Triadimenol 10 ppm alone): 96%
Observed Control (%) ([1]; Triadimenol 20 ppm alone): 96%

CC(N)CC(=O)O (stereo not drawn) [β-Aminobutyric acid, β-aminobutyric acid]
ED90 (powdery mildew in wheat; wheat (Table 5)): 684
ED90 (powdery mildew in wheat; wheat (Table 6)): 684
ED90 (powdery mildew in wheat; wheat (Table 7)): 684
Observed Control (%) (powdery mildew in wheat; BABA 16 ppm alone (Table 4)): 0%
Observed Control (%) (powdery mildew in wheat; BABA 62 ppm alone (Table 4)): 8%
Observed Control (%) (powdery mildew in wheat; BABA 125 ppm alone (Table 2)): 8%
Observed Control (%) (powdery mildew in wheat; BABA 125 ppm alone (Table 5)): 13%
Observed Control (%) (powdery mildew in wheat; BABA 125 ppm alone (Table 6)): 13%
Observed Control (%) (powdery mildew in wheat; BABA 125 ppm alone (Table 7)): 13%
Observed Control (%) (powdery mildew in wheat; BABA 250 ppm alone (Table 2)): 8%
Observed Control (%) (powdery mildew in wheat; BABA 250 ppm alone (Table 4)): 17%
Observed Control (%) (powdery mildew in wheat; BABA 250 ppm alone (Table 5)): 25%
Observed Control (%) (powdery mildew in wheat; BABA 250 ppm alone (Table 6)): 25%
Observed Control (%) (powdery mildew in wheat; BABA 250 ppm alone (Table 7)): 25%
Observed Control (%) (powdery mildew in wheat; BABA 500 ppm alone (Table 2)): 8%
Observed Control (%) (powdery mildew in wheat; BABA 500 ppm alone (Table 5)): 63%
Observed Control (%) (powdery mildew in wheat; BABA 500 ppm alone (Table 6)): 63%
Observed Control (%) (powdery mildew in wheat; BABA 500 ppm alone (Table 7)): 63%
Observed Control (%) (powdery mildew in wheat; BABA 1000 ppm alone (Table 2)): 17%
Observed Control (%) (powdery mildew in wheat; BABA 1000 ppm alone (Table 4)): 33%
Observed Control (%) (powdery mildew in wheat; BABA 1000 ppm alone (Table 5)): 100%
Observed Control (%) (powdery mildew in wheat; BABA 1000 ppm alone (Table 6)): 100%
Observed Control (%) (powdery mildew in wheat; BABA 1000 ppm alone (Table 7)): 100%
Observed Control (%) (powdery mildew in barley; BABA 16 ppm alone (Table 3)): 0%
Observed Control (%) (powdery mildew in barley; BABA 62 ppm alone (Table 3)): 50%
Observed Control (%) (powdery mildew in barley; BABA 125 ppm alone (Table 1)): 14%
Observed Control (%) (powdery mildew in barley; BABA 250 ppm alone (Table 1)): 14%
Observed Control (%) (powdery mildew in barley; BABA 250 ppm alone (Table 3)): 38%
Observed Control (%) (powdery mildew in barley; BABA 500 ppm alone (Table 1)): 14%
Observed Control (%) (powdery mildew in barley; BABA 1000 ppm alone (Table 1)): 14%
Observed Control (%) (powdery mildew in barley; BABA 1000 ppm alone (Table 3)): 70%
